This is an account of results in patent US4792607A, “5-fluoro-3,4-dihydro-2,4-dioxo-N-(3-indolyl)-1(2H)-pyrimidinecarboxamides” (Chisso Corporation, priority 1986, dated 1988).

The subject of series [1] is Leukosis cells of P-388 mouse. The series is described as follows: Antitumor Effect Test (P-388 leukemia grafted into the abdomen of mice, ratio of survival days T/C). In kind it is in vivo. As to conditions: dosed into the abdomen successively for 5 days, P-388 in CDF1 or BDF1 mouse. The text has this: [Antitumor Effect Test] Leukosis cells of P-388 mouse of 1×10^6 /mouse were grafted into the abdomen of CDF1 or BDF1 mouse, and the fixed quantity of the compound of this invention was successively dosed into the abdomen for 5 days. Each 6 mice per dose level as test groups and 30~33 mice as control groups were used. [formula]

Series [2] in a line: Acute Toxicity Test (LD50). As to conditions: in vivo.
[3] abbreviates: Mus musculus, P388, ip, 120 h, 30 mg/kg.

Bounds are passed on as bounds.

In the case of `O=C(NCCCCCCNC(=O)n1cc(F)c(=O)[nH]c1=O)Nc1cccnc1` [Experiment 18], the response vs control in vivo at 0.47 mg/kg in series [1] (Mus musculus, P388, ip, 120 h, 0.47 mg/kg) was 110%. For the same compound, the response vs control in vivo at 0.94 mg/kg in series [1] (Mus musculus, P388, ip, 120 h, 0.94 mg/kg) is 115%. The response vs control in vivo at 1.87 mg/kg in series [1] (Mus musculus, P388, ip, 120 h, 1.87 mg/kg) came to 124%. Moreover, in series [1] (Mus musculus, P388, ip, 120 h, 3.75 mg/kg), the response vs control in vivo at 3.75 mg/kg is 131%. Moreover, in series [1] (Mus musculus, P388, ip, 120 h), the response vs control in vivo at 7.5 mg/kg was 138% and the response vs control in vivo at 15 mg/kg is 139%. Besides, the LD50 (commonly the dose at which mortality reaches 50%) in series [2] was over 30 mg/kg.
Regarding `NS(=O)(=O)c1ccc(NC(=O)NCCCCCCNC(=O)n2cc(F)c(=O)[nH]c2=O)cc1` [Experiment 20], in series [1] (setting [3]), the response vs control in vivo at 30 mg/kg stood at 95%. In series [1] (Mus musculus, P388, ip, 120 h), the response vs control in vivo at 60 mg/kg worked out at 110%, the response vs control in vivo at 120 mg/kg came out at 111% and the response vs control in vivo at 240 mg/kg was 112%. Besides, in series [2], the LD50 is over 240 mg/kg.
Turning to `O=C(NCCC[n+]1ccccc1)n1cc(F)c(=O)[nH]c1=O` [Experiment 17, 5-Fluoro-3,4-dihydro-2,4-dioxo-N-[3-(1-pyridinio)propyl]-1(2H-pyrimidinecarboxamide chloride], the response vs control in vivo at 30 mg/kg in series [1] (setting [3]) is 130%. Also, in series [1] (Mus musculus, P388, ip, 120 h), the response vs control in vivo at 60 mg/kg is 138%. For the same compound, in series [2], the LD50 is 240 mg/kg.
As to `O=C(NCc1c[nH]c2ccccc12)n1cc(F)c(=O)[nH]c1=O` [Experiment 4], the response vs control in vivo at 30 mg/kg in series [1] (setting [3]) came out at 117%. For the same compound, in series [1] (Mus musculus, P388, ip, 120 h), the response vs control in vivo at 60 mg/kg was determined as 115%, the response vs control in vivo at 120 mg/kg was found to be 118% and the response vs control in vivo at 400 mg/kg worked out at 128%. The compound further gave an LD50 in series [2] of over 400 mg/kg.
For the compound `O=C(NCC[n+]1ccccc1)n1cc(F)c(=O)[nH]c1=O` [Experiment 14, 5-Fluoro-3,4-dihydro-2,4-dioxo-N-[2-(1-pyridino)ethyl]-1(2H-pyrimidinecarboxamide chloride], in series [1] (Mus musculus, P388, ip, 120 h), the response vs control in vivo at 15 mg/kg was found to be 169% and the response vs control in vivo at 60 mg/kg stood at 215%. Also, in series [1] (setting [3]), the response vs control in vivo at 30 mg/kg is 171%. The LD50 in series [2] was found to be 120 mg/kg.
Consider `O=C(NCNC(=O)n1cc(F)c(=O)[nH]c1=O)c1ccccc1` [Experiment 13], for which the response vs control in vivo at 30 mg/kg in series [1] (setting [3]) came out at 117%. Besides, in series [1] (Mus musculus, P388, ip, 120 h), the response vs control in vivo at 60 mg/kg stood at 132% and the response vs control in vivo at 120 mg/kg was 147%. In series [2], this compound had a 50% lethal dose (LD50) of 240 mg/kg.
`O=C(Nc1cccs1)n1cc(F)c(=O)[nH]c1=O` [Experiment 1]: the “T/C (ratio of survival days)” value in series [1] (30 mg/kg) is 129%. Also, the response vs control in vivo at 30 mg/kg in series [1] (setting [3]) stood at 129%. In addition, the response vs control in vivo at 60 mg/kg in series [1] (Mus musculus, P388, ip, 120 h) came out at 138%. The LD50 in series [2] was over 240 mg/kg.
As to `O=C(NCCCCCCNC(=O)n1cc(F)c(=O)[nH]c1=O)Nc1ccccn1` [Experiment 19], in series [1] (Mus musculus, P388, ip, 120 h), the response vs control in vivo at 60 mg/kg is 154% and the response vs control in vivo at 120 mg/kg came out at 164%. In series [2], this compound returned an LD50 of over 240 mg/kg.
With `O=C(Nc1ccc[n+]([O-])c1)n1cc(F)c(=O)[nH]c1=O` [Experiment 2], in series [1] (Mus musculus, P388, ip, 120 h), the response vs control in vivo at 15 mg/kg amounted to 127% and the response vs control in vivo at 60 mg/kg was determined as 166%. For the same compound, in series [1] (setting [3]), the response vs control in vivo at 30 mg/kg came to 149%. This compound showed an LD50 in series [2] of 240 mg/kg.
On to `O=C(NCCCCC[n+]1ccccc1)n1cc(F)c(=O)[nH]c1=O` [Experiment 16, 5-Fluoro-3,4-dihydro-2,4-dioxo-N-[5-(1-pyridinio)pentyl]-1(2H-pyrimidinecarboxamide bromide], for which, in series [1] (Mus musculus, P388, ip, 120 h), the response vs control in vivo at 7.5 mg/kg amounted to 112% and the response vs control in vivo at 15 mg/kg is 120%. The response vs control in vivo at 30 mg/kg in series [1] (setting [3]) is 120%. The compound further registered an LD50 in series [2] of 60 mg/kg.
In the case of `O=C(NCCCCCCNC(=O)n1cc(F)c(=O)[nH]c1=O)NNC(=O)c1cccnc1` [Experiment 22], in series [1] (setting [3]), the response vs control in vivo at 30 mg/kg is 113%. In addition, in series [1] (Mus musculus, P388, ip, 120 h), the response vs control in vivo at 60 mg/kg came to 113%, the response vs control in vivo at 120 mg/kg came out at 128% and the response vs control in vivo at 400 mg/kg is 127%. In series [2], this compound yielded an LD50 of over 400 mg/kg.
For the compound `O=C(Nc1c[nH]c2ccccc12)n1cc(F)c(=O)[nH]c1=O` [Experiment 3], in series [1] (setting [3]), the response vs control in vivo at 30 mg/kg is 123%. For the same compound, in series [1] (Mus musculus, P388, ip, 120 h), the response vs control in vivo at 60 mg/kg stood at 135%, the response vs control in vivo at 120 mg/kg was 136% and the response vs control in vivo at 400 mg/kg amounted to 153%. The same compound displayed an LD50 in series [2] of over 400 mg/kg.
Take `CN(C)CCCNC(=O)NCCCCCCNC(=O)n1cc(F)c(=O)[nH]c1=O` [Experiment 21]: in series [1] (Mus musculus, P388, ip, 120 h), the response vs control in vivo at 15 mg/kg came out at 120% and the response vs control in vivo at 60 mg/kg amounted to 120%. Also, in series [1] (setting [3]), the response vs control in vivo at 30 mg/kg stood at 142%. In addition, in series [2], the LD50 was found to be 120 mg/kg.
In the case of `O=C(NCCCCCCNC(=O)n1cc(F)c(=O)[nH]c1=O)NNC(=O)c1ccncc1` [Experiment 23], the response vs control in vivo at 30 mg/kg in series [1] (setting [3]) was 109%. In addition, in series [1] (Mus musculus, P388, ip, 120 h), the response vs control in vivo at 60 mg/kg came out at 119%, the response vs control in vivo at 120 mg/kg was determined as 124% and the response vs control in vivo at 240 mg/kg was determined as 138%. In series [2], this compound had an LD50 of over 240 mg/kg.
